# From patent publication US10828331B2, “Cellular compositions used to restore stem cell or progenitor cell function and methods related thereto” (Emory University, priority 2012, dated 2020)
# Legend:
# [1] = system: mouse neural progenitors and mouse embryonic fibroblasts; settings: in combination with two factors (Oct4 and Klf4); cited from earlier work
# diabetic MSCs = experiment: real-time RT-PCR of angiogenic genes in compound-treated diabetic MSCs; format: cell-based, rat; settings: D-MSCs treated with epigenetic compounds for 7 days, FIG. 1
# Procedure: To reprogram diabetic MSCs with epigenetic compounds, cultured D-MSCs were treated with HDAC inhibitor: Vorinostat or suberoylanilide hydroxamic acid (SAHA); DNA methyltransferase inhibitor: Decitabine (trade name Dacogen), or 5-aza-2′-deoxycytidine (5-aza); multiple histone 3 lysine 9 (H3K9) methyltransferases G9a and GLP inhibitor: BIX-01294; and GSK3β inhibitor: CHIR99021 for 7 more days. N-MSCs and D-MSCs were cultured by a standard MSC culture method. The cultured MSCs are typically reseeded at day 4 and cultured for another 4 days. To examine the expression levels of angiogenic genes, we isolated RNAs from N-, D-, or epigenetic compound treated reprogrammed D-MSCs (RD-MSCs), and performed real-time RT-PCR with specific primers of angiogenic genes.
# Diabetes was induced in 8 week-old male Fischer 344 rats by intravenous injection of streptozotocin ([…]). Blood glucose levels were measured using an Accu-Check glucometer (Roche, Indianapolis, Ind.) after one week and two months. […]
# Gene expression was determined by TaqMan® real-time quantitative PCR on the 7300 Sequence Detection System (Applied Biosystems) using TaqMan® PCR Master Mix (Applied Biosystems). […] Relative mRNA expression of target gene normalized to GAPDH was calculated by using the formula Relative Expression Level=2−ΔCt, where ΔCt=Ct gene of interest−Ct GAPDH. […]
smiles,measurement,setting,value
COc1cc2nc(N3CCCN(C)CC3)nc(NC3CCN(Cc4ccccc4)CC3)c2cc1OC [BIX01294],reprogramming efficiency,[1],enhanced the reprogramming efficiency
"COC(=O)C1=C(C)NC(C)=C([N+](=O)[O-])C1c1ccccc1C(F)(F)F (stereo not drawn) [BayK8644, 1,4-dihydro-2,6-dimethyl-5-nitro-4-[2-(trifluoromethyl)phenyl]-3-pyridinecarboxylic acid, methyl ester]",reprogramming efficiency,[1],enhanced the reprogramming efficiency
"O=C(CCCCCCC(=O)Nc1ccccc1)NO [SAHA, suberoylanilide hydroxamic acid]",expression of major angiogenic genes,diabetic MSCs,significant increased pattern in most of genes
